Results taken from US6355799B1, “Substituted benzene compounds, process for their preparation, and herbicidal and defoliant compositions containing them” (ISK Americas Incorporated, priority 1997, dated 2002).

Columns and labels:
Type in all cases: in vivo
[1] = tested on: redroot pigweed (Amaranthus retroflexus, AMARE); assay: Pre-emerge test, greenhouse herbicide activity screening; conditions: pre-emerge, rated 14 days after application, 0 = no damage, 100 = complete death
In short: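 Visual ratings on a 0-100 scale (0 no damage, 100 all plants dead) were taken at 14 days after treatment. Rates of 15-1000 g ai/ha in acetone, 187 l/ha, were sprayed onto soil one day after planting (pre-emerge) or onto 2-3 leaf plants with 0.25% v/v surfactant (post-emerge).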

[2] = tested on: barnyardgrass (Echinochloa crus-galli, ECHCG); assay: as above; conditions: pre-emerge, rated 14 days after application, 0 = no damage, 100 = complete death
In short: (§1)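 Applied at 15–1000 g ai/ha from acetone in 187 l/ha spray volume. Post-emergence applications included 0.25% v/v non-ionic surfactant and reached plants sown 8–21 days before. Pre-emergence applications were incorporated by surface watering. Efficacy or crop damage was rated on a 0–100 scale after 14 days.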

[3] = tested on: green foxtail (Setaria viridis, SETVI); assay: as above; conditions: pre-emerge, rated 14 days after application, 0 = no damage, 100 = complete death
In short: as §1

[4] = tested on: ivyleaf morningglory (Ipomoea hederacea, IPOHE); assay: as above; conditions: pre-emerge, rated 14 days after application, 0 = no damage, 100 = complete death
In short: as §1

[5] = tested on: johnsongrass (Sorghum halepense, SORHA); assay: as above; conditions: pre-emerge, rated 14 days after application, 0 = no damage, 100 = complete death
In short: as §1

[6] = tested on: lambsquarters (Chenopodium album, CHEAL); assay: as above; conditions: pre-emerge, rated 14 days after application, 0 = no damage, 100 = complete death
In short: as §1

[7] = tested on: large crabgrass (Digitaria sanguinalis, DIGSA); assay: as above; conditions: pre-emerge, rated 14 days after application, 0 = no damage, 100 = complete death
In short: as §1

[8] = tested on: sicklepod (Cassia obtusifolia, CASOB); assay: as above; conditions: pre-emerge, rated 14 days after application, 0 = no damage, 100 = complete death
In short: as §1

[9] = tested on: velvetleaf (Abutilon theophrasti, ABUTH); assay: as above; conditions: pre-emerge, rated 14 days after application, 0 = no damage, 100 = complete death
In short: as §1

[10] = tested on: field corn (Zea mays L., var. Dekalb 535, CORN); assay: Pre-emerge test, crop safety; conditions: pre-emerge, rated 14 days after application, 0 = no damage, 100 = complete death
In short: (§2)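 Herbicidal damage is scored 0 (none) to 100 (complete plant death) two weeks after a simulated field spray. Rates span 15–1000 g ai/ha, delivered in acetone at 187 l/ha. For post-emergence treatments, plants have 2–3 leaves and the spray carries 0.25% v/v non-ionic surfactant.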

[11] = tested on: upland rice (Oryza sp., var. Tebonnet, RICE); assay: Pre-emerge test, crop safety; conditions: pre-emerge, rated 14 days after application, 0 = no damage, 100 = complete death
In short: as §2

[12] = tested on: barnyardgrass (Echinochloa crus-galli, ECHCG); assay: Post-emerge test, greenhouse herbicide activity screening; conditions: phytotoxicity rating 0-100 (0 no damage, 100 complete death), 14 days after application
In short: (§3)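 Each test used a mechanized track sprayer delivering 187 l/ha of acetone solution at 15–1000 g ai/ha. Post-emerge foliage at 2–3 leaves was treated with added 0.25% v/v non-ionic surfactant and bottom-watered only. Injury was assessed on day 14, where 100 means total kill.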

[13] = tested on: common ragweed (Ambrosia artemisizfolia L., AMBEL); assay: as above; conditions: phytotoxicity rating 0-100 (0 no damage, 100 complete death), 14 days after application
In short: as §3

[14] = tested on: green foxtail (Setaria viridis, SETVI); assay: as above; conditions: phytotoxicity rating 0-100 (0 no damage, 100 complete death), 14 days after application
In short: as §3

[15] = tested on: ivyleaf morningglory (Ipomoea hederacea, IPOHE); assay: as above; conditions: phytotoxicity rating 0-100 (0 no damage, 100 complete death), 14 days after application
In short: as §3

[16] = tested on: johnsongrass (Sorghum halepense, SORHA); assay: as above; conditions: phytotoxicity rating 0-100 (0 no damage, 100 complete death), 14 days after application
In short: as §3

[17] = tested on: lambsquarters (Chenopodium album, CHEAL); assay: as above; conditions: phytotoxicity rating 0-100 (0 no damage, 100 complete death), 14 days after application
In short: as §3

[18] = tested on: large crabgrass (Digitaria sanguinalis, DIGSA); assay: as above; conditions: phytotoxicity rating 0-100 (0 no damage, 100 complete death), 14 days after application
In short: as §3

[19] = tested on: redroot pigweed (Amaranthus retroflexus, AMARE); assay: as above; conditions: phytotoxicity rating 0-100 (0 no damage, 100 complete death), 14 days after application
In short: as §3

[20] = tested on: sicklepod (Cassia obtusifolia, CASOB); assay: as above; conditions: phytotoxicity rating 0-100 (0 no damage, 100 complete death), 14 days after application
In short: as §3

[21] = tested on: velvetleaf (Abutilon theophrasti, ABUTH); assay: as above; conditions: phytotoxicity rating 0-100 (0 no damage, 100 complete death), 14 days after application
In short: as §3

[22] = tested on: field corn (Zea mays L., var. Dekalb 535, CORN); assay: Post-emerge test, crop safety; conditions: phytotoxicity rating 0-100 (0 no damage, 100 complete death), 14 days after application
In short: as §1

[23] = tested on: upland rice (Oryza sp., var. Tebonnet, RICE); assay: Post-emerge test, crop safety; conditions: phytotoxicity rating 0-100 (0 no damage, 100 complete death), 14 days after application
In short: as §1

## COc1c(Cl)cc(F)c(-n2c(=O)cc(C(F)(F)F)n(C)c2=O)c1N=C(Cl)C(Cl)(Cl)Cl [Compound 1-30]
[1]; 63 g ai/ha
  Pre-emerge Herbicidal Activity AMARE (phytotoxicity rating, scale 0-100): 0
[1]; 250 g ai/ha
  Pre-emerge Herbicidal Activity AMARE (phytotoxicity rating, scale 0-100): 60
[2]; 63 g ai/ha
  Pre-emerge Herbicidal Activity ECHCG (phytotoxicity rating, scale 0-100): 0
[2]; 250 g ai/ha
  Pre-emerge Herbicidal Activity ECHCG (phytotoxicity rating, scale 0-100): 0
[3]; 63 g ai/ha
  Pre-emerge Herbicidal Activity SETVI (phytotoxicity rating, scale 0-100): 10
[3]; 250 g ai/ha
  Pre-emerge Herbicidal Activity SETVI (phytotoxicity rating, scale 0-100): 100
[4]; 63 g ai/ha
  Pre-emerge Herbicidal Activity IPOHE (phytotoxicity rating, scale 0-100): 0
[4]; 250 g ai/ha
  Pre-emerge Herbicidal Activity IPOHE (phytotoxicity rating, scale 0-100): 70
[5]; 63 g ai/ha
  Pre-emerge Herbicidal Activity SORHA (phytotoxicity rating, scale 0-100): 0
[5]; 250 g ai/ha
  Pre-emerge Herbicidal Activity SORHA (phytotoxicity rating, scale 0-100): 10
[6]; 63 g ai/ha
  Pre-emerge Herbicidal Activity CHEAL (phytotoxicity rating, scale 0-100): 85
[6]; 250 g ai/ha
  Pre-emerge Herbicidal Activity CHEAL (phytotoxicity rating, scale 0-100): 100
[7]; 63 g ai/ha
  Pre-emerge Herbicidal Activity DIGSA (phytotoxicity rating, scale 0-100): 0
[7]; 250 g ai/ha
  Pre-emerge Herbicidal Activity DIGSA (phytotoxicity rating, scale 0-100): 90
[8]; 63 g ai/ha
  Pre-emerge Herbicidal Activity CASOB (phytotoxicity rating, scale 0-100): 0
[8]; 250 g ai/ha
  Pre-emerge Herbicidal Activity CASOB (phytotoxicity rating, scale 0-100): 70
[9]; 63 g ai/ha
  Pre-emerge Herbicidal Activity ABUTH (phytotoxicity rating, scale 0-100): 50
[9]; 250 g ai/ha
  Pre-emerge Herbicidal Activity ABUTH (phytotoxicity rating, scale 0-100): 100
[10]; 63 g ai/ha
  Pre-emerge crop damage CORN (phytotoxicity rating, scale 0-100): 0
[10]; 250 g ai/ha
  Pre-emerge crop damage CORN (phytotoxicity rating, scale 0-100): 10
[11]; 63 g ai/ha
  Pre-emerge crop damage RICE (phytotoxicity rating, scale 0-100): 10
[11]; 250 g ai/ha
  Pre-emerge crop damage RICE (phytotoxicity rating, scale 0-100): 30
[12]; 63 g ai/ha
  Post-emerge Herbicidal Activity ECHCG: 0
[12]; 250 g ai/ha
  Post-emerge Herbicidal Activity ECHCG: 0
[13]; 63 g ai/ha
  Post-emerge Herbicidal Activity AMBEL: 0
[13]; 250 g ai/ha
  Post-emerge Herbicidal Activity AMBEL: 70
[14]; 63 g ai/ha
  Post-emerge Herbicidal Activity SETVI: 0
[14]; 250 g ai/ha
  Post-emerge Herbicidal Activity SETVI: 0
[15]; 63 g ai/ha
  Post-emerge Herbicidal Activity IPOHE: 20
[15]; 250 g ai/ha
  Post-emerge Herbicidal Activity IPOHE: 100
[16]; 63 g ai/ha
  Post-emerge Herbicidal Activity SORHA: 0
[16]; 250 g ai/ha
  Post-emerge Herbicidal Activity SORHA: 0
[17]; 63 g ai/ha
  Post-emerge Herbicidal Activity CHEAL: 0
[17]; 250 g ai/ha
  Post-emerge Herbicidal Activity CHEAL: 60
[18]; 63 g ai/ha
  Post-emerge Herbicidal Activity DIGSA: 0
[18]; 250 g ai/ha
  Post-emerge Herbicidal Activity DIGSA: 0
[19]; 63 g ai/ha
  Post-emerge Herbicidal Activity AMARE: 10
[19]; 250 g ai/ha
  Post-emerge Herbicidal Activity AMARE: 30
[20]; 63 g ai/ha
  Post-emerge Herbicidal Activity CASOB: 0
[20]; 250 g ai/ha
  Post-emerge Herbicidal Activity CASOB: 30
[21]; 63 g ai/ha
  Post-emerge Herbicidal Activity ABUTH: 30
[21]; 250 g ai/ha
  Post-emerge Herbicidal Activity ABUTH: 100
[22]; 63 g ai/ha
  Post-emerge Herbicidal Activity CORN (crop damage): 0
[22]; 250 g ai/ha
  Post-emerge Herbicidal Activity CORN (crop damage): 10
[23]; 63 g ai/ha
  Post-emerge Herbicidal Activity RICE (crop damage): 0
[23]; 250 g ai/ha
  Post-emerge Herbicidal Activity RICE (crop damage): 20
